{"source": "patent US7994163B2", "about": "“6-substituted-2,3,4,5-tetrahydro-1H-benzo[d]azepines as 5-HT2C receptor agonists” (Eli Lilly and Company, priority 2005, dated 2011)", "key": {"Wistar rats [1]": {"test_system": "Wistar rats", "conditions": "general statement on standards; cited from earlier work"}, "male NIH Swiss mice [2]": {"test_system": "male NIH Swiss mice", "assay": "Marble burying assay (with rotorod)", "format": "in vivo", "conditions": "with rotorod performance", "method": "House experimentally-naïve male, NIH Swiss mice (Harlan Sprague-Dawley, Indianapolis, Ind.) weighing between 28-35 g in groups of 12 for at least three days prior to testing in a vivarium with 12 h light and dark cycles. Conduct experiments during the light cycle in a dimly lit experimental testing room. Dose mice with vehicle or test compound and, after a specified pretreatment interval (generally 30 min.), place each mouse individually on a rotorod (Ugo Basile 7650) operating at a speed of 6 revolutions/min. and observe for falling. After 2 min. on the rotorod, place the mice individually in a 17×28×12 cm high plastic tub with 5 mm sawdust shavings on the floor that are covered with 20 blue marbles (1.5 cm diameter) placed in the center. After 30 min., count the number of marbles buried (⅔ covered with sawdust). Assess the test compound's effect on marble burying with Dunnett's test and the effect on rotorod performance by Fisher's exact test.\nClinically effective standard compounds suppress marble burying at doses that are devoid of motor-impairing effects as measured on the rotorod. The in vivo efficacy of 5HT2C compounds at the 5HT2C receptor is confirmed by the prevention of effects of the 5HT2C agonists on marble burying by co-administration of the 5HT2C receptor antagonist, 6-chloro-5-methyl-N-{2-[(2-methylpyridin-3-yl-oxy)pyridin-5-yl]aminocarbonyl}-2,3-dihydroindole."}, "male NIH Swiss mice [3]": {"test_system": "male NIH Swiss mice", "assay": "Nestlet shredding", "format": "in vivo", "conditions": "with motor effects (rotorod test)", "source_text": "Mice naturally will construct nests of material available in their living environment. Since this behavior is obsessive in nature, it has been used to model OCD (Xia Li, Denise Morrow and Jeffrey M. Witkin, “Decreases in nestlet shredding of mice by serotonin uptake inhibitors: comparison with marble burying”, Psychopharmacology, submitted Jul. 14, 2003). House experimentally-naïve male, NIH Swiss mice (Harlan Sprague-Dawley, Indianapolis, Ind.) weighing between 28-35 g in groups of 12 for at least three days prior to testing in a vivarium with a 12 h light/dark cycle. Conduct experiments during the light cycle in an experimental room with normal overhead fluorescent lighting. Dose mice with vehicle or test compound and after a specified pretreatment interval (generally 30 min.), place the mice individually in a 17×28×12 cm high plastic tub with about 5 mm sawdust shavings on the floor along with a pre-weighed multi-ply gauze pad (51 mm square). After 30 min., weigh the remainder of the gauze pad not removed by the mouse. Determine the weight of the gauze used for nestlet construction by subtraction. Compare the results for test compound treated mice to the results for vehicle control treated mice with Dunnett's test.\nClinically effective OCD treatment standard compounds suppress nestlet shredding at doses that are devoid of motor-impairing effects as measured by the rotorod test. […]"}, "Wistar rats [4]": {"test_system": "Wistar rats", "assay": "Schedule-induced polydipsia", "conditions": "rat, in vivo", "method": "Maintain Wistar rats on a food restricted diet (to maintain 85% free feeding weight), but with free access to water. Train the rats in a behavioral testing chamber to press a lever to receive a food pellet under a fixed interval schedule, such that the rats are rewarded with a 45 mg food pellet the first time they press a lever after a 120 second interval has elapsed. The fixed interval is then reset to 120 seconds and the process repeated. Thus, during a 90 min. test session, the rats can earn a maximum of 45 pellets. The behavioral chamber is also equipped with a water bottle that is weighed before and after the session to determine the amount of water consumed.\nAdminister test compounds on Tuesdays and Fridays. Determine control day performances on Thursdays. Administer compounds either orally at 60 min. before the beginning of a test session, or subcutaneously at 20 min. before the beginning of a test session. Compare the rates of lever pressing and water consumption for each animal's performance during sessions after test compound treatment with that animal's performance during control sessions, expressed as a percent of the control rate. Average the individual percent of control rates for each dose and calculate the standard error of the mean. […]"}}, "note": "Counter-ions that a name gives are not always drawn."}
{"smiles": "Clc1ccc2c(c1CSc1ncc[nH]1)CCNCC2", "note": "(as salt: phosphate) (hydrate or solvate)", "values": [{"measurement": "melting point", "result": "243 to 245", "unit": "°C"}]}
{"smiles": "CN(C)CCCN1c2ccccc2CCc2ccc(Cl)cc21", "note": "[chlomipramine]", "values": [{"measurement": "schedule-induced polydipsia, clinically effective OCD treatment standard compounds", "setting": "Wistar rats [1]", "result": "suppress schedule-induced polydipsia without producing notable changes in motor patterns, food intake, or behavior the following day"}]}
{"smiles": "CN(C)CCCN1c2ccccc2Sc2ccc(Cl)cc21", "note": "[chlorpromazine]", "values": [{"measurement": "marble burying behavior", "setting": "male NIH Swiss mice [2]", "result": "decrease marble burying only at doses that also disrupt rotorod performance"}]}
{"smiles": "C[C@H](N)Cc1ccccc1", "note": "[d-amphetamine]", "values": [{"measurement": "nestlet shredding", "setting": "male NIH Swiss mice [3]", "result": "decreases nestlet shredding only at doses that produce motoric side effects"}, {"measurement": "Effect of 5-HT2C antagonist co-administration on suppression of polydipsia", "setting": "Wistar rats [4]", "result": "not prevented by the 5HT2C receptor antagonist"}, {"measurement": "schedule-induced polydipsia (excessive drinking)", "setting": "Wistar rats [4]", "result": "decreases excessive drinking only at behaviorally stimulating doses"}]}
{"smiles": "CNCCC(Oc1ccc(C(F)(F)F)cc1)c1ccccc1", "note": "(stereo not shown) [fluoxetine]", "values": [{"measurement": "schedule-induced polydipsia, clinically effective OCD treatment standard compounds", "setting": "Wistar rats [1]", "result": "suppress schedule-induced polydipsia without producing notable changes in motor patterns, food intake, or behavior the following day"}]}
